The values below come from patent publication US20160279190A1, “MODULATION OF AXON DEGENERATION” (GENENTECH, INC., priority 2008, published 2016).

Molecules are shown by their SMILES.

One test has as its system DRGs. Kind of test: Campenot chamber local axon degeneration, anti-NGF in axon compartment. It is filed as cell-based, mouse. The note with it: inhibitor 15 μM; anti-NGF in axon compartment, 28 hours.
For test [1], the system named is cerebellar granule neurons (CGNs). Kind of test: serum deprivation/KCl reduction-induced degeneration. It is filed as cell-based, mouse. The note with it: inhibitor 5 μM; 5 mM KCl, 24 hours. The protocol:
Kinase inhibitors (inhibitors of GSK3, JNK, EGFR, p38, and CaMKK) were tested for their capacity to protect cultured cerebellar granule neurons (CGNs) following serum deprivation/KCl reduction. Briefly, CGNs isolated from P7 mouse brain were cultured on PDL- and laminin-coated 96-well tissue culture dishes in medium containing serum and potassium (Basal Medium Eagles including 29 mM KCl and 10% FBS) at 37° C. After 24 hours in culture, cells were switched to “deprivation” medium (Basal Medium Eagles including 5 mM KCl), alone or in combination with various small molecule inhibitors as shown in Table 8. After a further 24 hours in culture, the neurons were fixed with 4% paraformaldehyde and stained with a neuronal marker (anti-class III β-Tubulin, Covance). Image acquisition was performed using the ImageXpress automated imaging system (Molecular Devices).

For another test, the system named is CaMKK. The note with it: CaMKK activity after ionomycin stimulation, transfected HeLa cells; published source (footnote e, cell marked c); read-out: Cellular IC50; cited from earlier work.

Consider `O=C(O)c1ccc2c3c1cccc3c(=O)n1c3ccccc3nc21` [STO-609], for which, in the test with DRGs, the “Axon Compartment (axon protected when inhibitor is in axon compartment)” value is “Yes (1)” and the “Cell Body Compartment (axon protected when inhibitor is in cell body compartment)” value is “No (1)”. Moreover, the “protection of cerebellar granule neurons from serum deprivation/KCl reduction” value in test [1] was “protect cerebellar granule neurons from serum deprivation/KCl reduction”. Besides, the IC50 with CaMKK is 3000 nM.

The IC50 is the midpoint of a concentration-inhibition curve.
